Molecules are shown by their SMILES. Where two headings read alike, the source gives them in different places. Where only a bound is given, the exact number is not on record here.

In patent US20250034135A1, “ANTI-APOPTOTIC PROTEIN BCL-2 INHIBITOR, PHARMACEUTICAL COMPOSITION AND USES THEREOF” (HANGZHOU HEALZEN THERAPEUTICS CO., LTD., priority 2021, published 2025) one finds IC50 data, which are given here for 9 molecules.

One test addresses BCL2 (Homo sapiens (Human), UniProt P10415). Briefly: Molecular level activity test of anti-apoptotic protein BCL2 (HTRF, binding to Bim peptide). The note with it: HTRF, binding of BCL2 to Bim peptide; read-out: BCL2 nM (inhibitory activity, IC50). The gist of the method:
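Competition binding format: recombinant His-BCL2 and a biotin-Bim peptide are incubated with compound for 1 h, followed by 4 h at room temperature with HTRF detection antibodies.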

A further test concerns the target BCL2 (G101V) (Homo sapiens (Human), UniProt P10415, G101V). The test can be described thus: Molecular level activity test of anti-apoptotic protein BCL2 (G101V) (HTRF, binding to Bim peptide). The following applies: inhibition of BCL2 (G101V) binding to Bim peptide, read-out: BCL-2 (G101V). Here is the method:
(§1) The detection of the binding ability between anti-apoptotic protein BCL2 (G101V) and pro-apoptotic protein Bim was performed using Homogeneous Time-Resolved Fluorescence technology. The reaction of this method occurred in a white shallow 384-well plate, with a total reaction volume of 10 μL. Specifically, it included 2 μL of the compound to be tested (2% DMSO), 4 μL His-tagged recombinant protein, and 4 μL Biotin-tagged BIM protein peptide. After 1 hour of reaction, 5 L of each Anti-His and streptavidin-tagged XL665 antibody diluents diluted with a detection buffer were added. After incubating at room temperature for 4 hours, the values were read using the Envision multifunctional microplate reader to detect the effect of the compound to be tested on the binding ability of BCL2 (G101V) to BIM protein peptides.
A general note: Time-resolved FRET reads energy transfer from a long-lived donor to a nearby acceptor.

The target of the next test is BCL-XL (Homo sapiens (Human), UniProt Q07817). Briefly: BCL-XL enzyme molecular level activity test (HTRF, binding to BIM peptide). The note with it: binding of BCL-XL to BIM peptide, read-out: BCL-XL inhibitory activity (IC50). Here is the method: In a white shallow 384-well plate, a total reaction volume was 10 μL. Specifically, it included 2 μL of the compound to be tested (2% DMSO), […] His-tagged recombinant protein, and 4 μL Biotin-tagged BIM protein peptide. After 1 hour of reaction, 5 μL of each Anti-His and streptavidin-tagged XL665 antibody diluents diluted with a detection buffer were added. After incubating at room temperature for 4 hours, the values were read using the Envision multifunctional microplate reader to detect the effect of the compound to be tested on the binding ability of BCL-XL to BIM protein peptides. The Envision parameter settings were exciting light at 320 nm, and emitting light at 615 nm and 665 nm. The binding ability of anti-apoptotic proteins to Bim protein peptides was indirectly reflected by the signal ratio of 665 nm and 615 nm. In the reaction, background wells without BCL2 and active wells for full binding of recombinant proteins without compounds and Bim protein peptides were set up.
Chain of BCL-XL (Q07817 whole entry): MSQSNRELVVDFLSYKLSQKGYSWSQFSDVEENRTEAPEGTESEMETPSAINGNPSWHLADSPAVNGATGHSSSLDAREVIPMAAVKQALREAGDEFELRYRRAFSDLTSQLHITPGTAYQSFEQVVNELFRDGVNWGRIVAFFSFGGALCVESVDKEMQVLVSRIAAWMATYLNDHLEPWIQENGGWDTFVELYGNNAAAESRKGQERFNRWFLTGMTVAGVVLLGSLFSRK

A further test deals with BCL2 (D103Y) (Homo sapiens (Human), UniProt P10415, D103Y). The test can be described thus: Molecular level activity test of BCL2 (D103Y) (HTRF, binding to Bim peptide). The following applies: read-out: BCL-2 (D103Y) (nM) (inhibitory activity, IC50). Here is the method:
as §1, with “BCL2 (D103Y)” for “BCL2 (G101V)”, “5 μL” for “5 L”

Another test has as its system RS4; 11 cells. The test can be described thus: Tumor proliferation inhibitory activity test (MTS) on RS4; 11. Format: cell-based. The following applies: Homo sapiens, RS4-11, 72 h, 3 days incubation. Here is the method:
The cell proliferation inhibitory ability of the compounds on RS4; 11 was tested using the MTS method. MTS is a tetrazolium blue salt compound that can be reduced by various dehydrogenases in live cell mitochondria to their respective colored methylzan products. Its color depth is highly correlated with the number of live cells in certain sensitive cell lines within a certain range. RS4; 11, RS4; 11 (BCL-2-G101V) and MOLT-4 tumor cells were cultivated separately and collected, 180 μL of cell suspension was added to each well in a 96-well cell plate, 20 μL of DMSO with a final concentration of 0.2% was added to the control cell wells, 20 μL of gradient diluted compounds were added to cell wells, and the treated cells were incubated in a 5% CO2 incubator at 37° C. for 3 days. After the incubation was completed, the reaction solution was prepared according to the MTS reagent kit, 20 μL was added per well and incubated in a 5% CO2 incubator at 37° C. for 3-4 hours. The absorbance value at 490 nm was read using an enzyme-linked immunosorbent assay (ELISA) plate, and the absorbance value at 690 nm was used as the background value, with OD490 nm-OD690 nm as the final raw data. The formula for calculating the inhibition ratio of compounds was as follows: inhibition ratio=(ODDMSO−ODCompound)/(ODDMSO−ODblank)×100%.

Take `COc1ccc(CN2CCN(C3CC4(CCN(c5cc(Oc6cnc7[nH]cc(F)c7c6)c(C(=O)NS(=O)(=O)c6ccc(NCC7(F)CCN(C(C)C)CC7)c([N+](=O)[O-])c6)cc5F)CC4)C3)C(c3ccccc3C(C)C)C2)cc1` (stereo not drawn) [compound 062]: the IC50 on BCL2 was less than 10 nM; at BCL2 (G101V), less than 10 nM; on BCL-XL (values given in μM), greater than 1 µM.

Consider `COc1cccc(CN2CCN(C3CC4(CCN(c5cc(Oc6cnc7[nH]ccc7c6)c(C(=O)NS(=O)(=O)c6ccc(NCC7(F)CCOCC7)c([N+](=O)[O-])c6)cc5F)CC4)C3)[C@H](c3ccccc3C(C)C)C2)c1` [compound 184, (R)-2-((1H-pyrrolo[2,3-b]pyrid-5-yl)oxy)-5-fluoro-N-((4-(((4-fluorotetrahydro-2H-pyran-4-yl)methyl)amino)-3-nitrophenyl)sulfonyl)-4-(2-(2-(2-isopropylphenyl)-4-(3-methoxybenzyl)piperazin-1-yl)-7-azaspiro[3.5]non-7-yl)benzamide], for which the IC50 was less than 10 nM at BCL2, less than 10 nM on BCL2 (G101V) and greater than 0.5 µM on BCL-XL (values in nM).

Take `CC(C)c1ccccc1[C@@H]1CN(Cc2ccc(F)cc2)CCN1C1CC2(CCN(c3cc(Oc4cnc5[nH]ccc5c4)c(C(=O)NS(=O)(=O)c4ccc(NCC5(F)CCOCC5)c([N+](=O)[O-])c4)cc3F)CC2)C1` [compound 186, (R)-2-((1H-pyrrolo[2,3-b]pyrid-5-yl)oxy)-5-fluoro-4-(2-(4-(4-fluorobenzyl)-2-(2-isopropylphenyl)piperazin-1-yl)-7-azaspiro[3.5]non-7-yl)-N-((4-(((4-fluorotetrahydro-2H-pyran-4-yl)methyl)amino)-3-nitrophenyl)sulfonyl)benzamide]: the figures for the IC50 on BCL2, on BCL2 (G101V) and at BCL-XL (values in nM) were less than 10 nM, less than 10 nM and greater than 0.5 µM, respectively.

Turning to `COc1cc(CN2CCN(C3CC4(CCN(c5cc(Oc6cnc7[nH]ccc7c6)c(C(=O)NS(=O)(=O)c6ccc(NCC7(F)CCOCC7)c([N+](=O)[O-])c6)cc5F)CC4)C3)[C@H](c3ccccc3C(C)C)C2)ccc1C1CC1` [compound 196, (R)-2-((1H-pyrrolo[2,3-b]pyrid-5-yl)oxy)-4-(2-(4-(4-cyclopropyl-3-methoxybenzyl)-2-(2-isopropylphenyl)piperazin-1-yl)-7-azaspiro[3.5]non-7-yl)-5-fluoro-N-((4-(((4-fluorotetrahydro-2H-pyran-4-yl)methyl)amino)-3-nitrophenyl)sulfonyl)benzamide], the IC50 on BCL2 is less than 10 nM; at BCL2 (G101V) it was less than 10 nM; at BCL-XL (values in nM), greater than 0.5 µM.

For the molecule `CC(C)c1ccccc1[C@@H]1CN(Cc2ccc3c(c2)OCO3)CCN1C1CC2(CCN(c3cc(Oc4cnc5[nH]ccc5c4)c(C(=O)NS(=O)(=O)c4ccc(NCC5(F)CCOCC5)c([N+](=O)[O-])c4)cc3F)CC2)C1` [compound 203, (R)-2-((1H-pyrrolo[2,3-b]pyrid-5-yl)oxy)-4-(2-(4-(benzo[d][1,3]dioxocyclopent-5-ylmethyl)-2-(2-isopropylphenyl)piperazin-1-yl)-7-azaspiro[3.5]non-7-yl)-5-fluoro-N-((4-(((4-fluorotetrahydro-2H-pyran-4-yl)methyl)amino)-3-nitrophenyl)sulfonyl)benzamide], the IC50 is less than 10 nM on BCL2, less than 10 nM on BCL2 (G101V) and greater than 0.5 µM at BCL-XL (values in nM).

Take `CC(C)c1ccccc1[C@@H]1CN(Cc2ccc3c(c2)OCCO3)CCN1C1CC2(CCN(c3cc(Oc4cnc5[nH]ccc5c4)c(C(=O)NS(=O)(=O)c4ccc(NC[C@H]5CC[C@](C)(O)CC5)c([N+](=O)[O-])c4)cc3F)CC2)C1` [compound 226, 2-((1H-pyrrolo[2,3-b]pyrid-5-yl)oxy)-4-(2-((R)-4-((2,3-dihydrobenzo[b][1,4]dioxane-6-yl)methyl)-2-(2-isopropylphenyl)piperazin-1-yl)-7-azaspiro[3.5]non-7-yl)-5-fluoro-N-((4-((((1r, 4r)-4-hydroxy-4-methylcyclohexyl)methyl)amino)-3-nitrophenyl)sulfonyl)benzamide]: the IC50 is less than 10 nM on BCL2 and greater than 0.5 µM on BCL-XL (values in nM).

Turning to `CC(C)c1ccccc1[C@@H]1CN(Cc2cccc3c2OCCO3)CCN1C1CC2(CCN(c3cc(Oc4cnc5[nH]ccc5c4)c(C(=O)NS(=O)(=O)c4ccc(NC[C@H]5CC[C@](C)(O)CC5)c([N+](=O)[O-])c4)cc3F)CC2)C1` [compound 227, 2-((1H-pyrrolo[2,3-b]pyrid-5-yl)oxy)-4-(2-((R)-4-((2,3-dihydrobenzo[b][1,4]dioxane-5-yl)methyl)-2-(2-isopropylphenyl)piperazin-1-yl)-7-azaspiro[3.5]non-7-yl)-5-fluoro-N-((4-((((1r, 4r)-4-hydroxy-4-methylcyclohexyl)methyl)amino)-3-nitrophenyl)sulfonyl)benzamide], the figures for the IC50 at BCL2 and at BCL-XL (values in nM) were less than 10 nM and greater than 0.5 µM, respectively.

As for `COc1ccc(CN2CCN(C3CC4(CCN(c5cc(Oc6cnc7[nH]cc(F)c7c6)c(C(=O)NS(=O)(=O)c6ccc(NC[C@H]7CC[C@](C)(O)CC7)c([N+](=O)[O-])c6)cc5F)CC4)C3)[C@H](c3ccccc3C(C)C)C2)cc1` [compound 235, 5-fluoro-2-((3-fluoro-1H-pyrrolo[2,3-b]pyrid-5-yl)oxy)-N-((4-((((1r, 4r)-4-hydroxy-4-methylcyclohexyl)methyl)amino)-3-nitrophenyl)sulfonyl)-4-(2-((R)-2-(2-isopropylphenyl)-4-(4-methoxybenzyl)piperazin-1-yl)-7-azaspiro[3.5]non-7-yl)benzamide], the IC50 was less than 10 nM on BCL2, less than 10 nM at BCL2 (G101V), less than 10 nM on BCL2 (D103Y) and 0.5 to 1 nM in the test with RS4; 11 cells.

For `CC(C)c1ccccc1[C@@H]1CN(Cc2cnn(C)c2)CCN1C1CC2(CCN(c3cc(Oc4cnc5[nH]ccc5c4)c(C(=O)NS(=O)(=O)c4ccc(NC[C@H]5CC[C@](C)(O)CC5)c([N+](=O)[O-])c4)cc3F)CC2)C1` [compound 238, 2-((1H-pyrrolo[2,3-b]pyrid-5-yl)oxy)-5-fluoro-N-((4-((((1r, 4r)-4-hydroxy-4-methylcyclohexyl)methyl)amino)-3-nitrophenyl)sulfonyl)-4-(2-((R)-2-(2-isopropylphenyl)-4-((1-methyl-1H-pyrazole-4-yl)methyl)piperazin-1-yl)-7-azaspiro[3.5]non-7-yl)benzamide], the IC50 in the test on RS4; 11 cells was in the range of 0.5 to 1 nM.
